Laboratory results as given in article PMC10935503 (Acta Pharmaceutica Sinica. B, 2023).

What was measured:
Format in all cases: cell-based
HIV-1 WT strain (IIIB) = assay: Anti-HIV-1 activity in MT-4 cells, MTT method, WT strain IIIB; conditions: for EC50: Human immunodeficiency virus 1, IIIB, MT4, read-out: EC50 IIIB
[1] = system: HIV-1 K103N + Y181C (RES056); assay: microbe, parasite or virus in culture; conditions: Human immunodeficiency virus 1, MT4, read-out: EC50 RES056
[2] = Cytotoxicity in mock-infected MT-4 cells, MTT method; conditions: human

SMILES | EC50 (HIV-1 WT strain (IIIB)) [µM] | EC50 [1] [µM] | CC50 at 5 days [2] [µM] | EC50 IIIB (HIV-1 WT strain (IIIB); MT-4 cells, MTT method, HIV-1 IIIB (WT))
Cc1cc(C#N)cc(C)c1Oc1nc(Nc2ccc(C#N)cc2)nc2c1[S+]([O-])CCC2 (centres unmarked) [16a, 4-((2-((4-Cyanophenyl)amino)-5-oxido-7,8-dihydro-6H-thiopyrano[3,2-d]pyrimidin-4-yl)oxy)-3,5-dimethylbenzonitrile] | 0.00799 ± 0.00095 | 0.445 ± 0.0957 | ≥ 19.7 | –
Cc1cc(C#N)cc(C)c1Oc1nc(N2CCN(Cc3ccc(S(N)(=O)=O)cc3)CC2)nc2c1SCCC2 [19a, 4-((4-(4-(4-Cyano-2,6-dimethylphenoxy)-7,8-dihydro-6H-thiopyrano[3,2-d]pyrimidin-2-yl)piperazin-1-yl)methyl)benzenesulfonamide] | > 3.08 | – | 19.3 ± 3.04 | lost potency
Cc1cc(C#N)cc(C)c1Oc1nc(NCCn2ccc(=O)[nH]c2=O)nc2c1SCCC2 [20a, 4-((2-((2-(2,4-Dioxo-3,4-dihydropyrimidin-1(2H)-yl)ethyl)amino)-7,8-dihydro-6H-thiopyrano[3,2-d]pyrimidin-4-yl)oxy)-3,5-dimethylbenzonitrile] | 0.233 ± 0.158 | > 248 | > 284 | –
Cc1cc(/C=C/C#N)cc(C)c1Oc1nc(NCCn2ccc(=O)[nH]c2=O)nc2c1SCCC2 [20b, (E)-3-(4-((2-((2-(2,4-Dioxo-3,4-dihydropyrimidin-1(2H)-yl)ethyl)amino)-7,8-dihydro-6H-thiopyrano[3,2-d]pyrimidin-4-yl)oxy)-3,5-dimethylphenyl)acrylonitrile] | 0.02 ± 0.0198 | 22.7 | 142 ± 31.1 | –
Cc1cc(C)c(Oc2nc(NCCn3ccc(=O)[nH]c3=O)nc3c2SCCC3)c(C)c1 [20c, 1-(2-((4-(Mesityloxy)-7,8-dihydro-6H-thiopyrano[3,2-d]pyrimidin-2-yl)amino)ethyl)pyrimidine-2,4(1H,3H)-dione] | 0.523 ± 0.466 | > 152 | 152 ± 28.3 | –
Cc1cc(C#N)cc(C)c1Oc1nc(NC2CCN(Cc3ccc(C#N)cc3)CC2)nc2c1SCCC2 [23a, 4-((2-((1-(4-Cyanobenzyl)piperidin-4-yl)amino)-7,8-dihydro-6H-thiopyrano[3,2-d]pyrimidin-4-yl)oxy)-3,5-dimethylbenzonitrile] | 0.00444 ± 0.00139 | 0.263 ± 0.0971 | 3.76 ± 0.32 | –
Cc1cc(C#N)cc(C)c1Oc1nc(NC2CCN(Cc3ccccc3C#N)CC2)nc2c1SCCC2 [23c, 4-((2-((1-(2-Cyanobenzyl)piperidin-4-yl)amino)-7,8-dihydro-6H-thiopyrano[3,2-d]pyrimidin-4-yl)oxy)-3,5-dimethylbenzonitrile] | 0.0071 ± 0.00269 | 1.16 ± 0.184 | 3.86 ± 1.14 | –
Cc1cc(C#N)cc(C)c1Oc1nc(NC2CCN(Cc3cccc(S(N)(=O)=O)c3)CC2)nc2c1SCCC2 [23d, 3-((4-((4-(4-Cyano-2,6-dimethylphenoxy)-7,8-dihydro-6H-thiopyrano[3,2-d]pyrimidin-2-yl)amino)piperidin-1-yl)methyl)benzenesulfonamide] | 0.00465 ± 0.00065 | 0.79 ± 0.134 | 5.61 ± 3.42 | –
CCOC(=O)c1ccc(CN2CCC(Nc3nc4c(c(Oc5c(C)cc(C#N)cc5C)n3)SCCC4)CC2)cc1 [23e, Ethyl 4-((4-((4-(4-cyano-2,6-dimethylphenoxy)-7,8-dihydro-6H-thiopyrano[3,2-d]pyrimidin-2-yl)amino)piperidin-1-yl)methyl)benzoate] | 0.0148 ± 0.0135 | 4.83 ± 0.517 | 65.3 ± 39.8 | –
Cc1cc(C#N)cc(C)c1Oc1nc(NCCN2CCOCC2)nc2c1SCCC2 [compound 20d, 3,5-Dimethyl-4-((2-((2-morpholinoethyl)amino)-7,8-dihydro-6H-thiopyrano[3,2-d]pyrimidin-4-yl)oxy)benzonitrile] | 5.69 ± 4.76 | – | 20.5 ± 11.3 | –
Cc1cc(C#N)cc(C)c1Oc1nc(NC2CCN(Cc3cccc(C#N)c3)CC2)nc2c1SCCC2 [compound 23b, 4-((2-((1-(3-Cyanobenzyl)piperidin-4-yl)amino)-7,8-dihydro-6H-thiopyrano[3,2-d]pyrimidin-4-yl)oxy)-3,5-dimethylbenzonitrile] | 0.006 ± 0.00103 | 0.764 ± 0.0861 | 3.78 ± 0.63 | –
